US9067871B2, “Aminotetraline derivatives, pharmaceutical compositions containing them, and their use in therapy” (ABBVIE DEUTSCHLAND GMBH & CO KG, priority 2009, dated 2015)
Counter-ions that a name gives are not always drawn. Like-named read-outs stand apart in the source and are kept apart here.

Legend:
human GlyT1c = human GlyT1c (Homo sapiens (Human), UniProt P48067); test: [3H]-Glycine uptake into recombinant CHO cells expressing human GlyT1; assay type: cell-based
Description: 1. [^3H]-Glycine uptake into recombinant CHO cells expressing human GlyT1: Human GlyT1c expressing recombinant hGlyT1c—5_CHO cells were plated at 20,000 cells per well in 96 well Cytostar-T scintillation microplates (Amersham Biosciences) and cultured to sub-confluency for 24 h. […] 80 μl HBSS buffer were added, followed by 10 μl inhibitor or vehicle (10% DMSO) and 10 μl [^3H]-glycine (TRK71, Amersham Biosciences) to a final concentration of 200 nM for initiation of glycine uptake. The plates were placed in a Wallac Microbeta (PerkinElmer) and continuously counted by solid phase scintillation spectrometry during up to 3 hours. Nonspecific uptake was determined in the presence of 10 μM Org24598.

human GlyT1c transporter = human GlyT1c transporter (Homo sapiens (Human), UniProt P48067); test: Radioligand binding assay using recombinant CHO cell membranes expressing human GlyT1; conditions: read-out: radioligand binding Kiapp
Excerpt: 2. Radioligand binding assays using recombinant CHO cell membranes expressing human GlyT1: […]

[1] = hGlyT1c_5_CHO cells, 200 nM [3H]-glycine
[2] = human GlyT1c-expressing CHO cell membranes

Chain of human GlyT1c transporter (P48067 whole entry): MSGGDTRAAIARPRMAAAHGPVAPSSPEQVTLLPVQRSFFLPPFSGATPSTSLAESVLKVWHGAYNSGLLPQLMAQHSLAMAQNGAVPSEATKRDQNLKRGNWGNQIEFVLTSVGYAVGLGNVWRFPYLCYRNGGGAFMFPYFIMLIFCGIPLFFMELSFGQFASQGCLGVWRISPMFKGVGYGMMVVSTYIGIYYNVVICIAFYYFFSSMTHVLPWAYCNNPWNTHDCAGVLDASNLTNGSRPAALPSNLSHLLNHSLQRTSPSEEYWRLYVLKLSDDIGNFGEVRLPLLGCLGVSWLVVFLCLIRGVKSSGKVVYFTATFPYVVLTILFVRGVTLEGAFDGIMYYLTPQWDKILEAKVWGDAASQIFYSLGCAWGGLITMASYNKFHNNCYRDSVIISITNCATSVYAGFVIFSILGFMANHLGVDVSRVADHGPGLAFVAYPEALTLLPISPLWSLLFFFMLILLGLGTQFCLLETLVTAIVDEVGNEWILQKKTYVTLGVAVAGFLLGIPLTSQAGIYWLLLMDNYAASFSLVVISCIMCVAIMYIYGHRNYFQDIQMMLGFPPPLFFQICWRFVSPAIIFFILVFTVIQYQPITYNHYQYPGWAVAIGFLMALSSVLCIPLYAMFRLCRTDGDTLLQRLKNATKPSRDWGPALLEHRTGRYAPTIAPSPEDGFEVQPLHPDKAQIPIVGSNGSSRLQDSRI
Chain of human GlyT1c (P48067 whole entry): as above

Row | SMILES | IC50 (human GlyT1c; [1]) [µM] | Ki (human GlyT1c transporter; [2]) [µM] | IC50 (human GlyT1c) [µM] | Ki (human GlyT1c transporter) [µM]
1 | CCCS(=O)(=O)N(C)Cc1ccc2c(c1)[C@H](Cc1ccccc1)[C@H](N)CC2 (relative stereo) [Example 45, N-{[cis-7-amino-8-benzyl-5,6,7,8-tetrahydronaphthalen-2-yl]methyl}-N-methylpropane-1-sulfonamide hydrochloride] | ≤ 0.1 | ≤ 0.1 | – | –
2 | CCOC(=O)NC1CCc2ccc(OCCNC(=O)OC(C)(C)C)cc2C1Cc1ccc(Cl)c(Cl)c1 (centres unmarked) [Example 1, [7-(2-tert-Butoxycarbonylamino-ethoxy)-1-(3,4-dichloro-benzyl)-1,2,3,4-tetrahydro-naphthalen-2-yl]-carbamic acid ethyl ester] | ≤ 1000 | ≤ 10 | – | –
3 | CCOC(=O)NC1CCc2ccc(OCCNS(=O)(=O)c3cn(C)cn3)cc2C1Cc1ccc(Cl)c(Cl)c1 (centres unmarked) [Example 2, Ethyl 1-(3,4-dichlorobenzyl)-7-(2-(1-methyl-1H-imidazole-4-sulfonamido)ethoxy)-1,2,3,4-tetrahydronaphthalen-2-ylcarbamate] | ≤ 1 | ≤ 0.1 | – | –
4 | Cn1cnc(S(=O)(=O)NCCOc2ccc3c(c2)C(Cc2ccc(Cl)c(Cl)c2)C(N)CC3)c1 (centres unmarked) [Example 3, N-(2-(7-Amino-8-(3,4-dichlorobenzyl)-5,6,7,8-tetrahydronaphthalen-2-yloxy)ethyl)-1-methyl-1H-imidazole-4-sulfonamide hydrochloride] | – | – | ≤ 0.01 | ≤ 0.01
5 | Cn1cc(S(=O)(=O)NCCOc2ccc3c(c2)C(Cc2ccc(Cl)c(Cl)c2)C(N)CC3)cn1 (centres unmarked) [Example 4, 1-Methyl-1H-pyrazole-4-sulfonic acid {2-[7-amino-8-(3,4-dichloro-benzyl)-5,6,7,8-tetrahydro-naphthalen-2-yloxy]-ethyl}-amide hydrochloride] | ≤ 0.01 | ≤ 0.01 | – | –
6 | NC1CCc2ccc(OCCNS(=O)(=O)c3cccnc3)cc2C1Cc1ccc(Cl)c(Cl)c1 (centres unmarked) [Example 5, Pyridine-3-sulfonic acid {2-[7-amino-8-(3,4-dichloro-benzyl)-5,6,7,8-tetrahydro-naphthalen-2-yloxy]-ethyl}-amide hydrochloride] | ≤ 1 | ≤ 1 | – | –
7 | CCCS(=O)(=O)NCCOc1ccc2c(c1)C(Cc1ccc(Cl)c(Cl)c1)C(N(C)C)CC2 (centres unmarked) [Example 6] | ≤ 1 | ≤ 0.1 | – | –
8 | CCCS(=O)(=O)NCCOc1ccc2c(c1)C(Cc1ccc(Cl)c(Cl)c1)C(NC(=O)OCC)CC2 (centres unmarked) [Example 7] | ≤ 10 | ≤ 10 | – | –
9 | CCCS(=O)(=O)NCCOc1ccc2c(c1)C(Cc1ccc(Cl)c(Cl)c1)C(N)CC2 (centres unmarked) [Example 8, Propane-1-sulfonic acid {2-[7-amino-8-(3,4-dichloro-benzyl)-5,6,7,8-tetrahydronaphthalen-2-yloxy]-ethyl}-amide hydrochloride] | – | – | ≤ 0.1 | ≤ 0.1
10 | CCOC(=O)NC1CCc2ccc(OCCNS(=O)(=O)c3cnn(C)c3)cc2C1Cc1ccc(Cl)c(Cl)c1 (centres unmarked) [Example 9, {1-(3,4-Dichloro-benzyl)-7-[2-(1-methyl-1H-pyrazole-4-sulfonylamino)-ethoxy]-1,2,3,4-tetrahydro-naphthalen-2-yl}-carbamic acid ethyl ester] | ≤ 1 | ≤ 1 | – | –
11 | CCOC(=O)NC1CCc2ccc(OCCNS(=O)(=O)c3cccnc3)cc2C1Cc1ccc(Cl)c(Cl)c1 (centres unmarked) [Example 10, {1-(3,4-Dichloro-benzyl)-7-[2-(pyridine-3-sulfonylamino)-ethoxy]-1,2,3,4-tetrahydronaphthalen-2-yl}-carbamic acid ethyl ester] | ≤ 100 | ≤ 10 | – | –
12 | CCCS(=O)(=O)N(C)CCOc1ccc2c(c1)C(Cc1ccc(Cl)c(Cl)c1)C(N)CC2 (centres unmarked) [Example 11, N-(2-(7-Amino-8-(3,4-dichlorobenzyl)-5,6,7,8-tetrahydronaphthalen-2-yloxy)ethyl)-N-methylpropane-1-sulfonamide hydrochloride] | ≤ 1 | ≤ 0.1 | – | –
13 | CCOC(=O)NC1CCc2ccc(OCCNS(C)(=O)=O)cc2C1Cc1ccc(Cl)c(Cl)c1 (centres unmarked) [Example 12, [1-(3,4-Dichloro-benzyl)-7-(2-methanesulfonylamino-ethoxy)-1,2,3,4-tetrahydronaphthalen-2-yl]-carbamic acid ethyl ester] | ≤ 100 | ≥ 10 | – | –
14 | CCOC(=O)NC1CCc2ccc(OCCNS(=O)(=O)c3ccccc3)cc2C1Cc1ccc(Cl)c(Cl)c1 (centres unmarked) [Example 13, [7-(2-Benzenesulfonylamino-ethoxy)-1-(3,4-dichloro-benzyl)-1,2,3,4-tetrahydronaphthalen-2-yl]-carbamic acid ethyl ester] | ≤ 1000 | ≤ 100 | – | –
15 | CCOC(=O)NC1CCc2ccc(OCCNS(=O)(=O)c3cccs3)cc2C1Cc1ccc(Cl)c(Cl)c1 (centres unmarked) [Example 14, {1-(3,4-Dichloro-benzyl)-7-[2-(thiophene-2-sulfonylamino)-ethoxy]-1,2,3,4-tetrahydronaphthalen-2-yl}-carbamic acid ethyl ester] | ≤ 1000 | ≤ 100 | – | –
16 | CS(=O)(=O)NCCOc1ccc2c(c1)C(Cc1ccc(Cl)c(Cl)c1)C(N)CC2 (centres unmarked) [Example 15, N-{2-[7-Amino-8-(3,4-dichloro-benzyl)-5,6,7,8-tetrahydro-naphthalen-2-yloxy]-ethyl}-methanesulfonamide hydrochloride] | – | – | ≤ 1 | ≤ 1
17 | NC1CCc2ccc(OCCNS(=O)(=O)c3ccccc3)cc2C1Cc1ccc(Cl)c(Cl)c1 (centres unmarked) [Example 16, N-{2-[7-Amino-8-(3,4-dichloro-benzyl)-5,6,7,8-tetrahydro-naphthalen-2-yloxy]-ethyl}-benzenesulfonamide hydrochloride] | – | – | ≤ 10 | ≤ 10
18 | NC1CCc2ccc(OCCNS(=O)(=O)c3cccs3)cc2C1Cc1ccc(Cl)c(Cl)c1 (centres unmarked) [Example 17, Thiophene-2-sulfonic acid {2-[7-amino-8-(3,4-dichloro-benzyl)-5,6,7,8-tetrahydro-naphthalen-2-yloxy]-ethyl}-amide hydrochloride] | ≤ 10 | ≤ 1 | – | –
19 | Cn1cnc(S(=O)(=O)NCCOc2ccc3c(c2)C(Cc2ccc(Cl)c(Cl)c2)C(NC(=O)C(F)(F)F)CC3)c1 (centres unmarked) [Example 18, N-{1-(3,4-Dichloro-benzyl)-7-[2-(1-methyl-1H-imidazole-4-sulfonylamino)-ethoxy]-1,2,3,4-tetrahydro-naphthalen-2-yl}-2,2,2-trifluoro-acetamide] | ≤ 0.1 | ≤ 0.01 | – | –
20 | NC1CCc2ccc(OCCNS(=O)(=O)C3CCNC3)cc2C1Cc1ccc(Cl)c(Cl)c1 (centres unmarked) [Example 19, Pyrrolidine-3-sulfonic acid {2-[7-amino-8-(3,4-dichloro-benzyl)-5,6,7,8-tetrahydronaphthalen-2-yloxy]-ethyl}-amide hydrochloride] | ≤ 100 | ≤ 10 | – | –
21 | Cn1cnc(S(=O)(=O)NCCOc2ccc3c(c2)C(Cc2ccc(Cl)c(Cl)c2)C(NC=O)CC3)c1 (centres unmarked) [Example 20, 1-Methyl-1H-imidazole-4-sulfonic acid {2-[8-(3,4-dichloro-benzyl)-7-formylamino-5,6,7,8-tetrahydro-naphthalen-2-yloxy]-ethyl}-amide] | ≤ 0.1 | ≤ 0.01 | – | –
22 | CCOC(=O)NC1CCc2ccc(OCCNS(=O)(=O)c3cc(C)cs3)cc2C1Cc1ccc(Cl)c(Cl)c1 (centres unmarked) [Example 21] | ≤ 1000 | ≤ 100 | – | –
